Measurements from ChEMBL document CHEMBL1201862, “PubChem BioAssay data set” (2004).
Calls of active or inactive are those of the source.

How the values were obtained:
[1] = target: T1, 1-phosphatidylinositol 4,5-bisphosphate phosphodiesterase beta-3 (Homo sapiens, UniProt Q01970); test: Fluorescence-based biochemical high throughput dose response assay to identify inhibitors of phospholipase C isozymes (PLC-B3).
T1 sequence (Q01970 whole entry): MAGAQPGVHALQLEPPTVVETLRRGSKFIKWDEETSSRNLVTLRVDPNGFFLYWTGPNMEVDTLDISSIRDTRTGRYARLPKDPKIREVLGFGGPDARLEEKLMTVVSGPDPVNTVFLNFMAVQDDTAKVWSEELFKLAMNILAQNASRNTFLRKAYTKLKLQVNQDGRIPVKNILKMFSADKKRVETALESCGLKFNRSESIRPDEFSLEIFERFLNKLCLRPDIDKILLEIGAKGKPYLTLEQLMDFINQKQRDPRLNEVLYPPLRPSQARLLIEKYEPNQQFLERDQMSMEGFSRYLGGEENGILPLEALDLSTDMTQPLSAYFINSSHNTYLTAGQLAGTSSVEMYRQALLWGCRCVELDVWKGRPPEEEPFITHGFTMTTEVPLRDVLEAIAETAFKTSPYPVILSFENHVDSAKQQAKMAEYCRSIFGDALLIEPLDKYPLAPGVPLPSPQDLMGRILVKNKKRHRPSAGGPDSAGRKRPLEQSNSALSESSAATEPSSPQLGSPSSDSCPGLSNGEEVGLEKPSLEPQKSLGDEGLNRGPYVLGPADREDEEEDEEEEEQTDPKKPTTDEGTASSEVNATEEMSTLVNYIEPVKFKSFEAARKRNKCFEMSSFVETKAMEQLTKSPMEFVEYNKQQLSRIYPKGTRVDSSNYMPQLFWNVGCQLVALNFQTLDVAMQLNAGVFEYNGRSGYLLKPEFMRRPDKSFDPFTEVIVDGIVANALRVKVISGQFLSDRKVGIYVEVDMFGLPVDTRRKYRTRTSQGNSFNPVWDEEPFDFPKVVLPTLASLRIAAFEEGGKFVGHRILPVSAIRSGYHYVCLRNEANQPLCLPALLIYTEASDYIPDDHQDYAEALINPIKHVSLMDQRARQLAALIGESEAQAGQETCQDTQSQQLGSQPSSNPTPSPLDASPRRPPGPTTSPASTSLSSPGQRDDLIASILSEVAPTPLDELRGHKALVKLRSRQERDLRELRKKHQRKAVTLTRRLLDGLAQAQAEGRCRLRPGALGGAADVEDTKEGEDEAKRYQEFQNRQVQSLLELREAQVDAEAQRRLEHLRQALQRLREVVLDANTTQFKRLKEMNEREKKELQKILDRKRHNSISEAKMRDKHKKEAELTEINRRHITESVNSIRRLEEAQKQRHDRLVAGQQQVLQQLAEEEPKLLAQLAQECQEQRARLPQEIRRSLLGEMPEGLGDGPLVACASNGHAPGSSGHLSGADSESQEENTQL

[2] = target: T2, 1-phosphatidylinositol 4,5-bisphosphate phosphodiesterase gamma-1 (Homo sapiens, UniProt P19174); test: Counterscreen for inhibitors of phospholipase C isozymes (PLC-B3): Fluorescence-based biochemical high throughput dose response assay to identify inhibitors of phospholipase C isozymes (PLC-gamma1).
T2 sequence (P19174 whole entry): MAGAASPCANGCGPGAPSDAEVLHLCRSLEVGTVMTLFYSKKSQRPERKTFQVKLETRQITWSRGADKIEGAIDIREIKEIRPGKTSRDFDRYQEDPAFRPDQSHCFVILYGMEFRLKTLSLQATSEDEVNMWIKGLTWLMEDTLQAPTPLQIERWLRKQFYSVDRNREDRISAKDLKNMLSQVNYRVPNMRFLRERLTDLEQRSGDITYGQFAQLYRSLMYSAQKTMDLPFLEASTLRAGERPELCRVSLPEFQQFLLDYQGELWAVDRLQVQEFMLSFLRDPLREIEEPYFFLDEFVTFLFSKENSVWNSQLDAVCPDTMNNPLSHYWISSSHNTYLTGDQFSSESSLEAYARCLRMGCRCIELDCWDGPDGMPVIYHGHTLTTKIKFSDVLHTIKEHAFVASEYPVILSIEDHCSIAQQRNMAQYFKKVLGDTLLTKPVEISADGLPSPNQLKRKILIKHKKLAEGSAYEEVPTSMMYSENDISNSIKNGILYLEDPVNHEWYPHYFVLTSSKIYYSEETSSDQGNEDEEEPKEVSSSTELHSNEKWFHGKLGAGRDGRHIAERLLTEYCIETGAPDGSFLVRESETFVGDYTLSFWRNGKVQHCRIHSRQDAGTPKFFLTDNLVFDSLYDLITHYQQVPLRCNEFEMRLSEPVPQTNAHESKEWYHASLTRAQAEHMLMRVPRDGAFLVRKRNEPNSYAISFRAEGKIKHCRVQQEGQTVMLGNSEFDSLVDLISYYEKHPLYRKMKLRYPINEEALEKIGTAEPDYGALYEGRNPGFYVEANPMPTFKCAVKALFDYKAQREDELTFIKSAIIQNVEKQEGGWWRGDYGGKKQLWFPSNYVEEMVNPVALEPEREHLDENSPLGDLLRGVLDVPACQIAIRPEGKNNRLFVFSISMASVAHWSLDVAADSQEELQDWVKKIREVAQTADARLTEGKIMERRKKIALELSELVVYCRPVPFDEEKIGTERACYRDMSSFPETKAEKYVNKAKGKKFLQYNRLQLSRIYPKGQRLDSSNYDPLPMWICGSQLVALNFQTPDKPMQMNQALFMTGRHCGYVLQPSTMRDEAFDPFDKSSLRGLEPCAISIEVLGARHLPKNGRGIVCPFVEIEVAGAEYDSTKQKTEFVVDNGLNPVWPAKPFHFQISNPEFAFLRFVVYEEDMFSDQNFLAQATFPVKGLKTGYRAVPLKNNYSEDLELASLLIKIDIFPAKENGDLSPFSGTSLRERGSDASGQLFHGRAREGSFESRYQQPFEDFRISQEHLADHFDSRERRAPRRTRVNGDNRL

[3] = growth inhibition of yeast DHODH-expressing 3D7 parasites – SYBR Green, dry powder samples, dose response (AID 1159570); type: functional, cell-based;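 also: parasite growth measured after 72 hours of compound exposure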
[4] = P. falciparum Dd2 growth inhibitors, dose response, SYBR Green, cherry-picked samples (AID 1159567); type: functional, cell-based
[5] = Dd2 malaria parasite growth inhibition potency – SYBR Green, dry powder samples, dose response (AID 1159566); type: functional, cell-based;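 also: potency for growth inhibition with lower SYBR green DNA signal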
[6] = growth inhibition of PfATP4-mutant resistant parasites – NITD609-resistant line, SYBR Green, dry powder, dose response (AID 1159571); type: functional, cell-based;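 also: parasites synchronized at ring stage by sorbitol before testing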
[7] = toxicity to human HepG2 hepatoma cells – cell-based, plate reader, dry powder samples, cytotoxicity control, dose response (AID 1159569); type: functional;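 also: inhibitor potency with signal falling toward the positive control level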
[8] = target: T3, Corticotropin-releasing factor receptor 2/Corticotropin-releasing factor-binding protein (Homo sapiens, UniProt P24387+Q13324); test: activators of CRF receptor 2 with binding protein – uHTS hits, confirmation (AID 602473); type: functional; settings: read-out: EC50_Mean
T3 sequence (Q13324 whole entry): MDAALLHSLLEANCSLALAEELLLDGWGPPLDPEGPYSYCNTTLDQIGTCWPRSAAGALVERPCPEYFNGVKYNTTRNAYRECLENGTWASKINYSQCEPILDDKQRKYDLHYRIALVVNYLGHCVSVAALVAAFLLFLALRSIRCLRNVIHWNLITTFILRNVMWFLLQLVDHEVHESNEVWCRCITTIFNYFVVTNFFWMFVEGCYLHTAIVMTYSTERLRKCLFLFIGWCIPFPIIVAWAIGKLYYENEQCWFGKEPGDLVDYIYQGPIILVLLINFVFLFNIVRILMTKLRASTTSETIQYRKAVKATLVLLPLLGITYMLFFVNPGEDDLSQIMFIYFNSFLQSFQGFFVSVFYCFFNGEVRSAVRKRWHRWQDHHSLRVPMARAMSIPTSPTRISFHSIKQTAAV
T3 sequence (P24387 whole entry): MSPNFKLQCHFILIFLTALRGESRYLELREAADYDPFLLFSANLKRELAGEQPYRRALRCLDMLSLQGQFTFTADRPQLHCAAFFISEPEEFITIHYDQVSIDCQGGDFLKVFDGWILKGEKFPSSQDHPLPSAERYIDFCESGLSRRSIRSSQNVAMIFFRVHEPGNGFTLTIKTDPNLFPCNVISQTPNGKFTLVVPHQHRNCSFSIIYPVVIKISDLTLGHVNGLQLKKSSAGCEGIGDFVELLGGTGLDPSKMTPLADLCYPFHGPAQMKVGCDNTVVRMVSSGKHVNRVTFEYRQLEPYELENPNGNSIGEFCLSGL

[9] = target: T3, Corticotropin-releasing factor receptor 2/Corticotropin-releasing factor-binding protein; test: Dose Response confirmation of uHTS hits for small molecule antagonists of the CRF-binding protein and CRF-R2 receptor complex.; type: functional; settings: read-out: IC50_Mean
[10] = target: T4, Calpain-2 catalytic subunit (Sus scrofa, UniProt P43367); test: m-calpain protease blockers, concentration series – biochemical, fluorogenic peptide substrate, dose response (AID 1420); type: functional
T4 sequence (P43367 whole entry): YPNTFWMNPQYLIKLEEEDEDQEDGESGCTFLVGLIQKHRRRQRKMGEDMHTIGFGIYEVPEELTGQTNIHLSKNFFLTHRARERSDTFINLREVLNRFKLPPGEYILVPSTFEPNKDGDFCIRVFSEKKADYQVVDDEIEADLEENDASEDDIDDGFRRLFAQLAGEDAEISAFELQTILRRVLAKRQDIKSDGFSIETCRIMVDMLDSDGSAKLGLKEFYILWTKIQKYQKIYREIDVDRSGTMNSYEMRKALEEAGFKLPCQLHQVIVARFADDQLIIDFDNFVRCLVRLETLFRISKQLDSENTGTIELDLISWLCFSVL

[11] = viability loss of HPDE-C7K cells – cell-based, fluorescence, HTS, primary screen (AID 431); type: functional; settings: Homo sapiens
[12] = HPDE-C7 pancreatic duct cell viability loss – fluorescence, HTS (AID 430); type: functional, cell-based; settings: Homo sapiens
[13] = target: Genome polyprotein (dengue virus type 2, UniProt P29990); test: flavivirus cap methylation enzyme inhibition – biochemical, confirmation dose response, primary screen (AID 588689); type: functional
[14] = toxicity to human hepatoma HepG2 cells – cell-based, cherry-picked samples, cytotoxicity control, dose response (AID 1159577); type: functional
[15] = reduced cellular PGC1a acetyl-lysine signal – cell-based, cherry-picked samples, dose response (AID 720514); type: functional;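 also: potency may reflect raised or lowered acetylation signal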
[16] = blockade of melanocortin 4 receptor signaling – cell-based, plate reader, cherry pick, counter-screen for LGR2 antagonist project, dose response (AID 743444); type: functional;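 also: transfected HEK 293 cells stimulated with alpha-MSH peptide; potency of inhibitors of the alpha-MSH evoked signal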
[17] = viability loss in HEK293 cells – cell-based, plate reader, cherry-picked samples, cytotoxicity control, dose response (AID 743446); type: functional
[18] = blockers of bursicon-stimulated LGR2 cAMP reporter – cell-based, HEK293, CRE-luciferase reporter, cherry pick, set 2, dose response (AID 743343); type: functional;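 also: transfected cells were stimulated with diluted bursicon conditioned medium after compound addition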
[19] = target: T5, Protein Tat (Human immunodeficiency virus type 1 group M subtype B (isolate HXB2)(HIV-1), UniProt P04608); type: functional;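 also: tat binding to TAR RNA read out by fluorescence polarization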
T5 sequence (P04608 whole entry): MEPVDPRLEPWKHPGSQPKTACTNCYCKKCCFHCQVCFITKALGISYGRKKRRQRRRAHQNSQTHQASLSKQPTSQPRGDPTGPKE

[20] = target: Large T antigen (Simian virus 40, UniProt P03070); type: functional, Betapolyomavirus macacae;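 also: Confirmatory-stage PubChem screen for compounds that inhibit SV40 T antigen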
[21] = viability loss in THP-1 monocytes – THP-1 cells, cytotoxicity control for Vif-APOBEC3G degradation inhibitor project, dose response (AID 1117359); type: functional; settings: THP-1
[22] = target: Voltage-gated inwardly rectifying potassium channel KCNH2 (Homo sapiens, UniProt Q12809); test: concentration-dependent hERG rescue from blockers – cell-based, thallium flux, dose response (AID 2121); type: ADME
Chain of Voltage-gated inwardly rectifying potassium channel KCNH2 (Q12809 whole entry): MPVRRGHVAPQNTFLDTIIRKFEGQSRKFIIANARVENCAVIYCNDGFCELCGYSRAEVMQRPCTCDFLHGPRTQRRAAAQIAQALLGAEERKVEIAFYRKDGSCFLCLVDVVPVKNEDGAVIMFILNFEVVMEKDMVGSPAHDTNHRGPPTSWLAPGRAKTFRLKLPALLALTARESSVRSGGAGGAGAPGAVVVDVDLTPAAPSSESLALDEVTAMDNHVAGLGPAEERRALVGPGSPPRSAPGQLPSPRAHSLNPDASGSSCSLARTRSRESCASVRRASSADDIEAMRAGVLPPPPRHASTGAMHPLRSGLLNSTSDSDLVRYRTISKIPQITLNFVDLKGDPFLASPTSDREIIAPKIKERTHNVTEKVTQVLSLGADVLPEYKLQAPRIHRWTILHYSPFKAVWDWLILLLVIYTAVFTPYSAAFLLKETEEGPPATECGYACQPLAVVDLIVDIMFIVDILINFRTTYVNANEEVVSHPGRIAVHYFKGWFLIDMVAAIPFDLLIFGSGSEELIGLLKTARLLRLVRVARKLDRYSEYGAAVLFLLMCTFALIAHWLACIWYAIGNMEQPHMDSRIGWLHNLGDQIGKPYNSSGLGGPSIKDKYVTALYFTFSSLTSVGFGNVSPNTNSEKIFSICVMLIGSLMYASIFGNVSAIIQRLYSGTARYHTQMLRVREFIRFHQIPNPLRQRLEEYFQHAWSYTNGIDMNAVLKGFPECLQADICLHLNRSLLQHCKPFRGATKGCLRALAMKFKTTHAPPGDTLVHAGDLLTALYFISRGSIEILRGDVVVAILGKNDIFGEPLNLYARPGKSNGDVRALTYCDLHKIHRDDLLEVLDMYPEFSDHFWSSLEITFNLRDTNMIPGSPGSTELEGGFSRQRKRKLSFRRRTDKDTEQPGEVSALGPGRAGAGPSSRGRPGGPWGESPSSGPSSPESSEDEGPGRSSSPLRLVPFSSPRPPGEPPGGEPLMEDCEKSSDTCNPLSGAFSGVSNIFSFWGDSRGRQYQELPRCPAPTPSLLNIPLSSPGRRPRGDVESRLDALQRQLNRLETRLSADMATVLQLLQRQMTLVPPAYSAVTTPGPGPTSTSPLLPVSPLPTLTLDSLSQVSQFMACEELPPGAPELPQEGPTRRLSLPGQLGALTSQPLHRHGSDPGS

Chain of Large T antigen (P03070 whole entry): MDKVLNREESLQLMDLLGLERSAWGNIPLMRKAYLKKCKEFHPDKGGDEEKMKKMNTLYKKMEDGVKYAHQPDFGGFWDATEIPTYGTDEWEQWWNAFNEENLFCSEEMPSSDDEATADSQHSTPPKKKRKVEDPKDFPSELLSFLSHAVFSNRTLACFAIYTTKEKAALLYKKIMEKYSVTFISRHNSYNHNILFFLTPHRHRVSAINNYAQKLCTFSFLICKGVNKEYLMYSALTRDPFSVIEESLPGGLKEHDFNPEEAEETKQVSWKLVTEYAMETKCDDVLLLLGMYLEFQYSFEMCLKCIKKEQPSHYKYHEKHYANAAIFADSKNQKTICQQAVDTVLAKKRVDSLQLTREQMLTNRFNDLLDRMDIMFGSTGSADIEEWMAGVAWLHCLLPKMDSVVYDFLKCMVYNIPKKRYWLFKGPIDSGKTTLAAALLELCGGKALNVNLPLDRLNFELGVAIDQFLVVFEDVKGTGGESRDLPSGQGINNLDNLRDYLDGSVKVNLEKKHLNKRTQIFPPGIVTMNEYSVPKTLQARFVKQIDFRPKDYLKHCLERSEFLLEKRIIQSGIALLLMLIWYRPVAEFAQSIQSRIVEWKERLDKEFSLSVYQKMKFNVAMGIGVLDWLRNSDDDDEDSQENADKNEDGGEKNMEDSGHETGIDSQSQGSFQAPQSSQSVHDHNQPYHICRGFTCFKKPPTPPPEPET
Chain of Genome polyprotein (P29990 2492-3391 limits assumed): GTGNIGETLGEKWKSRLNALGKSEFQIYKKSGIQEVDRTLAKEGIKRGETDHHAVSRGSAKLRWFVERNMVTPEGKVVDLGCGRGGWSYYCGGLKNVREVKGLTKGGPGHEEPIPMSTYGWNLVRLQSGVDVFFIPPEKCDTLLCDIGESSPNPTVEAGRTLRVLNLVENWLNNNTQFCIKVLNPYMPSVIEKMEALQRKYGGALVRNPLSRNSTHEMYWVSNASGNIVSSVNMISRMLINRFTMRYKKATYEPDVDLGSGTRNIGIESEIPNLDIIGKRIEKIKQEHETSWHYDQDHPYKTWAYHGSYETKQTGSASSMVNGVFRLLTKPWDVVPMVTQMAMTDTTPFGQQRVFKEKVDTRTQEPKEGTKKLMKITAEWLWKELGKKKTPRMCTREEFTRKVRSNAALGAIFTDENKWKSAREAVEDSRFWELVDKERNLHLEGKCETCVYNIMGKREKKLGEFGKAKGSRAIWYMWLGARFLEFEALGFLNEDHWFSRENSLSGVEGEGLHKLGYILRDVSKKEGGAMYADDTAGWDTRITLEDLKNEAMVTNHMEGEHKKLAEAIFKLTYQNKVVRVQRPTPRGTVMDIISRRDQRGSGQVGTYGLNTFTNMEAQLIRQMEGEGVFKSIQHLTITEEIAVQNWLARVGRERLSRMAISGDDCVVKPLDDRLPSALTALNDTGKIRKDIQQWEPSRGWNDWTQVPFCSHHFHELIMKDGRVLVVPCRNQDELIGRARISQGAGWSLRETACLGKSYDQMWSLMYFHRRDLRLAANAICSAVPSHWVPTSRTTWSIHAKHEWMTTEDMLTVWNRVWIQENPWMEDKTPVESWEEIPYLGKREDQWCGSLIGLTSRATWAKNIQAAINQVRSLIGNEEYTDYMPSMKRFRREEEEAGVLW

COC(=O)C[C@@H]1CC[C@@H]2[C@H](COc3ccc(NC(=O)c4cccc(F)c4)cc3C(=O)N2C)O1
IC50 [1]: > 122 µM (inactive)
IC50 [2]: > 122 µM (inactive)

COc1ccc2c3c(n(C)c2c1)[C@H](CO)N(C(=O)Nc1ccc(F)cc1)CC31CN(C(=O)c2ccc3c(c2)OCO3)C1
AC50 [3]: 1.89 µM (active)
AC50 [4]: 2.68 µM (active)
AC50 [5]: 0.683 µM (active)
AC50 [6]: 1.2 µM (active)
AC50 [7]: > 100 µM (inactive)

COc1ccc(NC(=O)c2cc(-c3ccc(OC)c(OC)c3)on2)cc1OC
IC50 [1]: > 123 µM (inactive)
IC50 [2]: > 123 µM (inactive)

Brc1ccc(CSc2nnc(Cc3c[nH]c4ccccc34)o2)cc1
EC50 [8]: > 53 µM (inactive)
IC50 [9]: > 47.1 µM (inactive)
IC50 [10]: 5.75 µM (not active)
EC50 [11]: 13.4 µM (active)
EC50 [12]: 14.2 µM (active)

C=CCc1cccc(CNc2nc3ccccc3n2CC)c1O
EC50 [11]: > 20 µM (not active)
EC50 [12]: > 20 µM (not active)

CCOc1cc(Br)cc(C(c2c(C(=O)O)[nH]c3ccccc23)c2c(C(=O)O)[nH]c3ccccc23)c1O
IC50 [1]: > 122 µM (inactive)
IC50 [13]: 18.7 µM (active)
IC50 [2]: 18.6 µM (inactive)

CO[C@@H]1CN(C)C(=O)c2ccc(NC(=O)c3nc4ccccc4s3)cc2OC[C@@H](C)N(Cc2ccncc2)C[C@H]1C
AC50 [3]: 1.39 µM (active)
AC50 [4]: 2.62 µM (active)
AC50 [5]: 1.33 µM (active)
AC50 [6]: 1.34 µM (active)
AC50 [7]: 26.7 µM (active)
AC50 [14]: > 39 µM (inactive)

COc1cc(CN2C[C@@H]3N[C@H](C2)[C@@H]3c2ccc(/C=C/c3ccccc3)cc2)cc(OC)c1
AC50 [15]: 13 µM (active)
AC50 [4]: 2.38 µM (active)
AC50 [14]: 6.51 µM (active)

Cc1cc(C(=O)COC(=O)c2cccn2C)c(C)n1Cc1ccco1
AC50 [16]: 9.65 µM (active)
AC50 [17]: > 52 µM (inactive)
AC50 [18]: 5.16 µM (active)

COc1cccc(C(C#N)N2CCCCC2)c1O (stereo not drawn)
IC50 [19]: > 100 µM (active)

CCOC(=O)N1CCN(c2ccc(O)cc2)CC1
IC50 [19]: 14 µM (inconclusive)
IC50 [20]: 10.2 µM (active)
CC50 [21]: > 40 µM (active)

OC(COCc1ccc(Cl)cc1)CN1CCN(CC(O)COCc2ccc(Cl)cc2)CC1 (stereo not drawn)
EC50 [11]: > 20 µM (not active)
EC50 [12]: > 20 µM (not active)

CC(=O)c1c(N)nc(-c2ccccc2)nc1S
EC50 [22]: 11 µM (active)
